According to patent US20100119454A1, “Use of the conserved Drosophila NPFR1 system for uncovering interacting genes and pathways important in nociception and stress response” (priority 2008, published 2010):

Tests used:
rat TRPV1 = molecular target: T1, rat TRPV1 (Rattus norvegicus, UniProt O35433, E600K); test: Calcium imaging of HEK 293 cells (Fluo-4/Fura-red), capsaicin-induced Ca2+ influx; assay type: cell-based; settings: HEK293 cells transfected with TRPV1 cDNA alone, 400 nM capsaicin
T1 construct: expressed in transfected cells; host or cells: HEK293 cells, transient transfection with pcDNA3.1D (Invitrogen) carrying TRPV1 (E600K) cDNA
T1 sequence (O35433 whole entry E600K): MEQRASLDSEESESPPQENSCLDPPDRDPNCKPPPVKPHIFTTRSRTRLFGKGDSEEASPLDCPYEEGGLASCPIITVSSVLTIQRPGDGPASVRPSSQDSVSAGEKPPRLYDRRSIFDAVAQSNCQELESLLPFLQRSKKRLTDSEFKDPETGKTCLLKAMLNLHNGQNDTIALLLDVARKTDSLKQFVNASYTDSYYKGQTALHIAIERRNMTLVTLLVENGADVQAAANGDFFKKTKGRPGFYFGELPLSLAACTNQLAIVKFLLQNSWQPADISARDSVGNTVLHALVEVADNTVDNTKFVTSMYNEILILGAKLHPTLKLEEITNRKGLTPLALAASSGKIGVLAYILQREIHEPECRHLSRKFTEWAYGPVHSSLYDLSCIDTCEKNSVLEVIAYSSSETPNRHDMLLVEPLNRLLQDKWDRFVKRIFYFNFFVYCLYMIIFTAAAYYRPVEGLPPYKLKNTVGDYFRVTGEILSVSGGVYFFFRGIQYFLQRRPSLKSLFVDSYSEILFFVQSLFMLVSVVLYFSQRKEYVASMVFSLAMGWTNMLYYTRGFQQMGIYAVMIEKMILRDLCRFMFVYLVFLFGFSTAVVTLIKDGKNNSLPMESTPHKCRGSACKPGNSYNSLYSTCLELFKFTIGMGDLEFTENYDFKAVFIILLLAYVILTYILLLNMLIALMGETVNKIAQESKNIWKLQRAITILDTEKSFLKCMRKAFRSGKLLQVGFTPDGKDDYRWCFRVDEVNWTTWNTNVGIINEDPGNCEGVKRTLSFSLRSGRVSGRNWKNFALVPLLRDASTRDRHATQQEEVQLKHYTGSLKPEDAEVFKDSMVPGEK
Method: Transfection and Calcium imaging of HEK 293 cells. HEK293 cells were maintained under standard conditions (37° C., 5% CO2) in Dulbecco's Modified Eagle's Medium (Mediatech) supplemented with 10% fetal bovine serum, penicillin and streptomycin. pcDNA3.1D directional expression system (Invitrogen) was used to clone and express rat TRPV1 and fly NPFR1 cDNA in HEK293 cells. TRPV1 cDNA was PCR amplified from TRPV1 (E600K) sequence (Marella et al., 2006), using the following primers: 5′ […] 3′ (SEQ ID NO: 11) and 5′ […] 3′ (SEQ ID NO: 12). NPFR1 cDNA was PCR amplified from an NPFR1 cDNA plasmid(34), using two primers: 5′ […] 3′ (SEQ ID NO: 13) and 5′ […] 3′ (SEQ ID NO: 14). HEK293 cells were cultured on 8-well polyornithine-coated chambered coverglasses (Nunc) for 24 hrs before transfection. A suspension of 200 μl of water containing 0.4 μg plasmid DNA and 0.8 μl of Lipofectamine 2000 (Invitrogen) was used for transfection. The amounts of TRPV1 and NPFR1 cNDA used were 20 ng and 200 ng, respectively. pcDNA3.1 vector DNA was supplemented, when necessary, to ensure the equal amount of total DNA per transfection.
Calcium imaging was performed between 36-42 hours post transfection at 23° C. Cells were loaded with 1 μM Fluo-4 and 2 μM Fura-red (Invitrogen) for 90 min in Hanks' balanced salt solution (HBSS; Gibco), washed once with HBSS, and imaged using a Zeiss Axiovert 200M scope equipped with a Zeiss LSM 510 Meta laser scanning module. Dyes were excited at 488 nm with argon laser. Emission fluorescence was filtered by a BP505-530 and an LP585 filter. Images were collected for 300 s upon capsaicin stimulation at 1 frame s^−1, and analyzed with the SOARS analysis. NPF was synthesized by Quality Controlled Biochemicals. NPF and cyclic nucleotide analogs (Sigma) were pre-incubated at 23° C. with cells for 20-25 min before adding capsaicin.

[1] = molecular target: T2, VR1E600K, a variant of vanilloid receptor TRPV1 (Rattus norvegicus, UniProt O35433, E600K); test: Capsaicin avoidance (migration) of larvae expressing mammalian TRPV1 in PAIN neurons; assay type: in vivo, Drosophila melanogaster
T2 construct: expressed in transfected cells; host or cells: Drosophila melanogaster larvae, PAIN neurons (pain-gal4 x UAS-VR1E600K / UAS-TRPV1 transgenic line, Marella et al. 2006)
T2 sequence (O35433 whole entry E600K, the tested form may be a part): as the sequence (O35433 whole entry E600K) above
Excerpt: To provide further evidence that larval wandering behavior represents an aversive response to fructose, pain-gal4 was used to express a mammalian TRP channel protein VR1E600K, a variant of vanilloid receptor TRPV1 responsive to a spicy substance capsaicin from chili peppers (see the following references, which are incorporated herein by reference in their entireties: Caterina, M. J., et al., 1997; Marella, S., et al., 2006; Tobin, D. M., et al., 2002).
Behavioral assays. The migration assay on soft agar media was performed as described previously (Xu et al., 2008), which is hereby incorporated by reference herein in its entirety. […] The percentage of pupae on agar media was scored after 24 hours. […]

[2] = system: D. melanogaster post-feeding larvae; test: Larval food aversion (migration) assay on soft agar media; assay type: in vivo, Drosophila melanogaster
Method: Behavioral Assays. The food aversion assay was performed in plastic petri dishes (60 mm in diameter). Each apple juice-agar plate contains a mix (ca. 7 ml) of 1 g of Drosophila agar powder (USB, Swampscott, Mass.) and 6 ml apple-juice solution (0.1 g carbohydrates per ml, equivalent to 20% of frozen concentrate). Other soft agar media were made by mixing 1 g agar powder with 6.5 ml of distilled water or solution containing 10% fructose, 10% lactose, 10% sorbitol or 50 μM capsaicin, respectively. The amount of agar powder may require adjustment depending on agar quality. Twenty-five new post-feeding larvae (96 h AEL) were transferred onto a plate. The larvae were allowed to move freely on the medium, and those that crawled onto the plastic surface became less mobile and eventually formed pupae there. The percent of pupae on agar media was scored after 24 hours. All experiments were performed at room temperature except for the temperature shift assay. In these experiments, larvae and food media were pre-incubated at 30° C. for 60 min before the assay. The larvae were subsequently transferred onto the medium and kept at 30° C. All assays were performed in the dark. At least three separate trials were performed per assay.
(§1) Behavioral assays. The migration assay on soft agar media was performed as described previously (Xu et al., 2008), which is hereby incorporated by reference herein in its entirety. Twenty-five postfeeding larvae (96 h AEL) in one plate were allowed to move freely on the medium, and those that crawled onto the plastic surface became less mobile, and eventually formed pupae there. The percentage of pupae on agar media was scored after 24 hours. The clumping assay was also described in the following, which is hereby incorporated by reference herein in its entirety (Wu et al., 2003). Briefly, 45 mm petri dishes containing solid fructose agar (3% agar in a 10% fructose solution) were coated with a thin layer of yeast paste (0.5 g yeast powder in 10% fructose solution). Thirty larvae per plate were allowed to browse for 30 min, and those in clumps were scored immediately. The social burrowing assay was performed on solid agar media containing apple juice or 10% fructose, as described (Wu et al., 2003). All assays, unless stated otherwise, were performed at room temperature in the dark. At least three separate trials were performed per assay.

[3] = molecular target: T2, VR1E600K, a variant of vanilloid receptor TRPV1; test: Two-choice medium preference assay (capsaicin vs capsaicin-free media); assay type: in vivo
Method: The two-choice medium preference assay was performed on a 2.5% agar plate. The apple juice or water agar paste is the same as described above. 10 μl of 5 mM capsaicin stock solution (in 100% ethanol) or 10 μl ethanol was added to each ml of the agar media. 30 larvae were washed extensively to remove any food particles. They were then placed between the two piles of capsaicin and capsaicin-free media (1 cm in diameter), which are located 4 mm apart. The number of larvae in each medium was recorded after 20 min. A preference index was defined as the fraction of larvae choosing the capsaicin-free medium, minus the fraction of larvae choosing the capsaicin medium.

Drosophila adult flies = test: Two-choice preference test of adult flies (BITC); assay type: in vivo, Drosophila melanogaster; settings: 0.4 mM BITC, 2-day old control flies
Method: The two-choice preference test was based on a published procedure with some modifications (Al-Anzi et al., 2006), which is hereby incorporated by reference herein in its entirety. 2-day-old males withheld from food for 24 hr were presented with a 48-well plate containing two-colored food media in the alternating well rows. They contain 1% agar/10% fructose with 0.4 mM benzyl-isothiocyanate (BITC) in 75% ethanol or ethanol only. In each assay, 90-100 flies per line were tested in the dark. A preference index was defined as the fraction of […] choosing the BITC medium, minus the fraction of […] choosing the BITC-free medium. […] At least three trials were done for each line.

rats = settings: injected into the forebrain of rats, paw-withdraw test; cited from earlier work
[4] = system: pain-expressing sensory neurons; test: Calcium imaging (yellow cameleon 2.1, SOARS analysis) of larval sensory neurons; assay type: cell-based, Drosophila melanogaster
Method: Imaging. The live images of second instar larvae (ca. 48 h AEL) expressing DsRed driven by pain-gal4 were obtained using a Leica epifluorescence microscope. The immunofluorescence images were taken by a Zeiss LSM 510 Meta confocal microscope and processed by Zeiss AIM Image Examiner. […] Larvae were dissected in a modified HL6 solution containing lactose (HL6-Lac, 23.7 mM NaCl, 15 mM MgCl2, 24.8 mM KCl, 0.5 mM CaCl2, 10 mM NaHCO3, 5 mM HEPES, 240 mM lactose)^38. An incision was made along the dorsal midline, and the gut and the fat bodies were removed. The tissue was placed ventral side up in HL6 solution on a silicon-coated coverslip (Sylgard 184, DOW Corning Corp., Midland, Mich.) in a Dvorak-Stotler perfusion chamber (Lucas Highland, Chantilly, Va.). A minute amount of cyanoacrylate glue (Nexaband S/C, Abott Laboratories, North Chicago, Ill.) was applied to the edge of the cuticle using a glass micropipette to immobilize the tissue. The imaging was performed on a Zeiss LSM 510 Meta confocal microscope (Carl Zeiss Microimaging, Thornwood, N.Y.). YC2.1 was excited at 458 nm with an argon laser. Emission fluorescence was filtered by a BP 475-525 filter (cyan) and an LP 530 filter (yellow). 256×256 pixel images for ratiometric analysis were collected at 1 frame s^−1. The tissue was perfused at a rate of 8.3 ul s^−1 with HL6-Lac, periodically alternating with a modified HL6 solution containing fructose (HL6-Fru, with 240 mM fructose substituting 240 mM lactose in HL6-Lac), switching at 120-second intervals for a total of 800 seconds. The images were subsequently analyzed with the SOARS method (Statistical Optimization for the Analysis of Ratiometric Signals, Version 1.1) as described in the following references, which are hereby incorporated by reference herein in their entireties (Fan, X., et al., 2007; Broder, J., et al., 2007), using Matlab (MathWorks, Natick, Mass.; also see http://www.engr.uga.edu/research/groups/atslab/Software.html).
In brief, SOARS is a multivariate statistical optimization procedure performed on both CFP and YFP channels of the FRET imaging data. The analysis results in a set of eigenimages and associated time courses that represent the part of the imaged signal displaying statistically significant spatial correlation and temporal anti-correlation (e.g., the aspects of the signal that are demonstrable due to FRET). These eigenimages represent the spatial distribution of anti-correlated FRET changes in response to sugar stimulation. Because the stimulus was periodic, the time courses were tested for the presence of stimulus-locked activity. To quantify the significance of the periodic part of the FRET response, p-values for a periodic (sinusoidal) response at the stimulus frequency were calculated using multitaper harmonic analysis (a common method for the detection of sinusoids in noisy data) as described in the following references, which are hereby incorporated herein by reference in their entirety. (Thomson 1982; Mitra et al., 1999, Sornborger et al., 2003; Mitra et al., 2008).
In vivo calcium imaging. […] To quantify the significance of anti-correlated FRET response to fructose stimulation, p-values were calculated for a periodic (sinusoidal) response at the stimulus frequency using multitaper harmonic analysis, a common method for the detection of sinusoids in noisy data (Thomson, 1982), which is hereby incorporated by reference herein in its entirety.

[5] = system: D. melanogaster post-feeding larvae; test: Larval aggregation / cooperative burrowing on solid agar media; assay type: in vivo, Drosophila melanogaster; settings: solid 10% fructose agar, post-feeding larvae 96 hr AEL
Method: as §1

**Q.** For `COc1cc(CNC(=O)CCCC/C=C/C(C)C)ccc1O` [capsaicin], which “time to significant Ca2+ influx in response to capsaicin” value (rat TRPV1) is on record?
**A.** ≤ 30 s

**Q.** And the “migratory response to capsaicin agar paste” value ([1]; 400 nM capsaicin, larvae expressing UAS-TRPV1 driven by pain-gal4)?
**A.** migrate away

**Q.** And the “response to capsaicin-agar medium, control larvae” value ([1]; 25 μM capsaicin, control larvae (e.g., VR1E600K alone, no driver))?
**A.** no aversive response

**Q.** And the “migratory response to capsaicin-agar medium” value ([1]; 25 μM capsaicin, post-feeding larvae expressing VR1E600K driven by pain-gal4)?
**A.** migrated away

**Q.** And the “response of wild type larvae to capsaicin” value ([2]; wild type Drosophila larvae (no TRPV1))?
**A.** neither attractive nor aversive response

**Q.** What about the “medium preference in two-choice assay, post-feeding larvae” value ([3]; post-feeding VR1E600K-expressing larvae) of the same compound?
**A.** preference for capsaicin-free media

**Q.** And the “medium preference in two-choice assay, feeding larvae” value ([3]; younger feeding VR1E600K-expressing larvae (74 h AEL))?
**A.** no such preference

**Q.** With `S=C=NCc1ccccc1` [BITC, benzyl-isothiocyanate] as the compound, how does the “food choice of adult flies” value (Drosophila adult flies) read?
**A.** mostly avoided

**Q.** For “NPY: abundant signaling peptide in the brain of mammals”, which nociceptive threshold (rats) is on record?
**A.** significantly elevated

**Q.** What does the source list for `OC[C@H]1O[C@@H](O[C@H]2[C@H](O)[C@@H](O)C(O)O[C@@H]2CO)[C@H](O)[C@@H](O)[C@H]1O` (stereo partly drawn) [lactose]?
**A.** triggering larval wandering ([2]; 10% in soft agar paste, post-feeding larvae): not effective; Anti-correlated signal ([4]; pain^gal4/+, UAS-YC 2.1/+, 96 h AEL, lactose-lactose alternate, ventral sensory neurons in T2 and T3): No

**Q.** Which “larval grouping behavior on solid medium” value [5] does the source give for `O=C(CO)[C@@H](O)[C@H](O)[C@H](O)CO` [fructose] here?
**A.** aggregation and cooperative burrowing

**Q.** What about the “response of wild type larvae to sugar media” value ([2]; 10% sugar media, wild type larvae (FIG. 2B)) of the same compound?
**A.** aversive

**Q.** And the “larvae that moved away from the medium / pupated outside of the medium” value ([2]; w1118 new post-feeding larvae (ca. 96 h AEL), soft agar paste, apple juice or 10% fructose)?
**A.** about 80%

**Q.** And the Anti-correlated signal ([4]; pain^gal4/+, UAS-YC 2.1/+, 74 h AEL, lactose-fructose alternate, ventral sensory neurons in T2 and T3 segments)?
**A.** No

**Q.** What about the Anti-correlated signal ([4]; pain^gal4/+, UAS-YC 2.1/+, 96 h AEL, lactose-fructose alternate, chordotonal neurons in A1 segment) of the same compound?
**A.** No

**Q.** What about the Anti-correlated signal ([4]; pain^gal4/+, UAS-YC 2.1/+, 96 h AEL, lactose-fructose alternate, ventral sensory neurons in T2 and T3 segments) of the same compound?
**A.** Yes

**Q.** What about the Anti-correlated signal ([4]; pain^gal4/pain^3, UAS-YC 2.1/+ (pain mutant), 96 h AEL, lactose-fructose alternate, ventral sensory neurons in T2 and T3) of the same compound?
**A.** No
